Assay results published in the NIST ThermoML archive (doi:10.1021/je700145e).

Conditions: Liquid

CCCCC(C)O (configuration not stated) [2-hexanol]
Conditions | mass density [kg/m3]
313.13 K, 1010 kPa | 799.26
313.13 K, 2006 kPa | 800.05
313.13 K, 2999 kPa | 800.83
313.13 K, 4008 kPa | 801.59
313.13 K, 4999 kPa | 802.35
313.13 K, 5986 kPa | 803.12
313.13 K, 7000 kPa | 803.86
313.13 K, 8010 kPa | 804.64
313.13 K, 9026 kPa | 805.38
313.13 K, 10004 kPa | 806.09
313.13 K, 11005 kPa | 806.84
313.13 K, 12001 kPa | 807.56
313.13 K, 13010 kPa | 808.28
313.13 K, 14002 kPa | 808.98
313.13 K, 14998 kPa | 809.67
313.13 K, 16001 kPa | 810.39
313.13 K, 17006 kPa | 811.08
313.13 K, 18000 kPa | 811.7
313.13 K, 19005 kPa | 812.39
313.13 K, 20015 kPa | 813.1
313.13 K, 21029 kPa | 813.74
313.13 K, 22004 kPa | 814.4
323.09 K, 1037 kPa | 791
323.09 K, 2000 kPa | 791.79
323.09 K, 3010 kPa | 792.63
323.09 K, 4029 kPa | 793.48
323.09 K, 5004 kPa | 794.27
323.09 K, 6020 kPa | 795.1
323.09 K, 7007 kPa | 795.84
323.09 K, 8009 kPa | 796.68
323.09 K, 9017 kPa | 797.48
323.09 K, 10003 kPa | 798.25
323.09 K, 11001 kPa | 799
323.09 K, 12000 kPa | 799.77
323.09 K, 13021 kPa | 800.56
323.09 K, 14001 kPa | 801.3
323.09 K, 15002 kPa | 802
323.09 K, 16000 kPa | 802.74
323.09 K, 17004 kPa | 803.48
323.09 K, 18008 kPa | 804.21
323.09 K, 19001 kPa | 804.9
323.09 K, 20011 kPa | 805.62
323.09 K, 21003 kPa | 806.31
323.09 K, 22004 kPa | 807.01
333.04 K, 1055 kPa | 782.56
333.04 K, 2007 kPa | 783.43
333.04 K, 3005 kPa | 784.28
333.04 K, 4007 kPa | 785.21
333.04 K, 5015 kPa | 786.06
333.04 K, 6009 kPa | 786.93
333.04 K, 7006 kPa | 787.77
333.04 K, 7998 kPa | 788.61
333.04 K, 9006 kPa | 789.47
333.04 K, 10004 kPa | 790.32
333.04 K, 11007 kPa | 791.11
333.04 K, 12012 kPa | 791.93
333.04 K, 13003 kPa | 792.72
333.04 K, 14008 kPa | 793.51
333.04 K, 15005 kPa | 794.3
333.04 K, 16001 kPa | 795.06
333.04 K, 17006 kPa | 795.85
333.04 K, 18010 kPa | 796.61
333.04 K, 19002 kPa | 797.35
333.04 K, 20000 kPa | 798.08
333.04 K, 21000 kPa | 798.82
333.04 K, 22004 kPa | 799.56
342.98 K, 1032 kPa | 774.05
342.98 K, 2015 kPa | 775.01
342.98 K, 3012 kPa | 775.95
342.98 K, 4017 kPa | 776.87
342.98 K, 5013 kPa | 777.79
342.98 K, 6012 kPa | 778.72
342.98 K, 7025 kPa | 779.62
342.98 K, 8000 kPa | 780.47
342.98 K, 9000 kPa | 781.35
342.98 K, 9996 kPa | 782.25
342.98 K, 11020 kPa | 783.12
342.98 K, 11999 kPa | 783.92
342.98 K, 12996 kPa | 784.76
342.98 K, 14007 kPa | 785.6
342.98 K, 15003 kPa | 786.41
342.98 K, 16005 kPa | 787.17
342.98 K, 17002 kPa | 787.98
342.98 K, 18010 kPa | 788.76
342.98 K, 19005 kPa | 789.49
342.98 K, 20010 kPa | 790.27
342.98 K, 21006 kPa | 791
342.98 K, 22005 kPa | 791.75
352.86 K, 1053 kPa | 765.06
352.86 K, 2014 kPa | 766.05
352.86 K, 3019 kPa | 767.09
352.86 K, 4033 kPa | 768.08
352.86 K, 4996 kPa | 769.01
352.86 K, 6006 kPa | 770.06
352.86 K, 7013 kPa | 771.02
352.86 K, 8004 kPa | 771.95
352.86 K, 9035 kPa | 772.93
352.86 K, 10009 kPa | 773.84
352.86 K, 11007 kPa | 774.75
352.86 K, 12007 kPa | 775.66
352.86 K, 12999 kPa | 776.54
352.86 K, 14012 kPa | 777.47
352.86 K, 15010 kPa | 778.33
352.86 K, 16003 kPa | 779.21
352.86 K, 17002 kPa | 780.07
352.86 K, 18017 kPa | 780.92
352.86 K, 19005 kPa | 781.75
352.86 K, 20014 kPa | 782.58
352.86 K, 21013 kPa | 783.39
352.86 K, 22010 kPa | 784.18
362.73 K, 1075 kPa | 754.97
362.73 K, 2006 kPa | 756.02
362.73 K, 3018 kPa | 757.16
362.73 K, 4034 kPa | 758.26
362.73 K, 5016 kPa | 759.29
362.73 K, 6066 kPa | 760.41
362.73 K, 6998 kPa | 761.37
362.73 K, 8041 kPa | 762.44
362.73 K, 9014 kPa | 763.43
362.73 K, 10001 kPa | 764.37
362.73 K, 11026 kPa | 765.39
362.73 K, 12000 kPa | 766.35
362.73 K, 13010 kPa | 767.31
362.73 K, 13999 kPa | 768.28
362.73 K, 15006 kPa | 769.21
362.73 K, 16006 kPa | 770.12
362.73 K, 17005 kPa | 771.02
362.73 K, 18000 kPa | 771.92
362.73 K, 19003 kPa | 772.82
362.73 K, 20017 kPa | 773.7
362.73 K, 21006 kPa | 774.56
362.73 K, 22010 kPa | 775.42
